According to the NIST ThermoML archive (doi:10.1007/s10765-009-0651-x):
± gives the expanded uncertainty stated by the source.

Columns and labels:
[1] = wn = mass fraction of the nth substance listed; conditions: 101 kPa, Liquid

Cn1cc[n+](C)c1.[Cl-] [1,3-dimethylimidazolium chloride] + O
mass density ([1]; 293.15 K, w2 = 0.2004): 1157.78 ± 1.6 kg/m3
mass density ([1]; 293.15 K, w2 = 0.3015): 1135.29 ± 1.4 kg/m3
mass density ([1]; 293.15 K, w2 = 0.4019): 1111.77 ± 1.2 kg/m3
mass density ([1]; 293.15 K, w2 = 0.5001): 1089.04 ± 1.1 kg/m3
mass density ([1]; 293.15 K, w2 = 0.5992): 1067.56 ± 0.94 kg/m3
mass density ([1]; 293.15 K, w2 = 0.7003): 1047.52 ± 0.81 kg/m3
mass density ([1]; 293.15 K, w2 = 0.8003): 1030.53 ± 0.7 kg/m3
mass density ([1]; 293.15 K, w2 = 0.898): 1014.07 ± 0.59 kg/m3
mass density ([1]; 298.15 K, w2 = 0.2004): 1154.79 ± 1.5 kg/m3
mass density ([1]; 298.15 K, w2 = 0.3015): 1132.4 ± 1.4 kg/m3
mass density ([1]; 298.15 K, w2 = 0.4019): 1109.03 ± 1.2 kg/m3
mass density ([1]; 298.15 K, w2 = 0.5001): 1087.14 ± 1.1 kg/m3
mass density ([1]; 298.15 K, w2 = 0.5992): 1065.77 ± 0.93 kg/m3
mass density ([1]; 298.15 K, w2 = 0.7003): 1045.81 ± 0.8 kg/m3
mass density ([1]; 298.15 K, w2 = 0.8003): 1027.98 ± 0.68 kg/m3
mass density ([1]; 298.15 K, w2 = 0.898): 1012.2 ± 0.58 kg/m3
mass density ([1]; 303.15 K, w2 = 0.2004): 1152.15 ± 1.5 kg/m3
mass density ([1]; 303.15 K, w2 = 0.3015): 1129.93 ± 1.4 kg/m3
mass density ([1]; 303.15 K, w2 = 0.4019): 1106.69 ± 1.2 kg/m3
mass density ([1]; 303.15 K, w2 = 0.5001): 1084.55 ± 1.1 kg/m3
mass density ([1]; 303.15 K, w2 = 0.5992): 1063.34 ± 0.92 kg/m3
mass density ([1]; 303.15 K, w2 = 0.7003): 1043.7 ± 0.78 kg/m3
mass density ([1]; 303.15 K, w2 = 0.8003): 1026.15 ± 0.67 kg/m3
mass density ([1]; 303.15 K, w2 = 0.898): 1010.57 ± 0.57 kg/m3
mass density ([1]; 308.15 K, w2 = 0.2004): 1149.31 ± 1.5 kg/m3
mass density ([1]; 308.15 K, w2 = 0.3015): 1127.15 ± 1.3 kg/m3
mass density ([1]; 308.15 K, w2 = 0.4019): 1104.22 ± 1.2 kg/m3
mass density ([1]; 308.15 K, w2 = 0.5001): 1082.68 ± 1.1 kg/m3
mass density ([1]; 308.15 K, w2 = 0.5992): 1061.63 ± 0.91 kg/m3
mass density ([1]; 308.15 K, w2 = 0.7003): 1041.8 ± 0.77 kg/m3
mass density ([1]; 308.15 K, w2 = 0.8003): 1024.53 ± 0.66 kg/m3
mass density ([1]; 308.15 K, w2 = 0.898): 1008.86 ± 0.56 kg/m3
mass density ([1]; 313.15 K, w2 = 0.2004): 1146.46 ± 1.5 kg/m3
mass density ([1]; 313.15 K, w2 = 0.3015): 1124.33 ± 1.3 kg/m3
mass density ([1]; 313.15 K, w2 = 0.4019): 1101.07 ± 1.2 kg/m3
mass density ([1]; 313.15 K, w2 = 0.5001): 1080.38 ± 1 kg/m3
mass density ([1]; 313.15 K, w2 = 0.5992): 1059.44 ± 0.89 kg/m3
mass density ([1]; 313.15 K, w2 = 0.7003): 1039.52 ± 0.76 kg/m3
mass density ([1]; 313.15 K, w2 = 0.8003): 1022.66 ± 0.65 kg/m3
mass density ([1]; 313.15 K, w2 = 0.898): 1007.2 ± 0.55 kg/m3
mass density ([1]; 318.15 K, w2 = 0.2004): 1143.59 ± 1.5 kg/m3
mass density ([1]; 318.15 K, w2 = 0.3015): 1121.85 ± 1.3 kg/m3
mass density ([1]; 318.15 K, w2 = 0.4019): 1098.34 ± 1.1 kg/m3
mass density ([1]; 318.15 K, w2 = 0.5001): 1078.58 ± 1 kg/m3
mass density ([1]; 318.15 K, w2 = 0.5992): 1057.08 ± 0.88 kg/m3
mass density ([1]; 318.15 K, w2 = 0.7003): 1037.12 ± 0.74 kg/m3
mass density ([1]; 318.15 K, w2 = 0.8003): 1021.05 ± 0.64 kg/m3
mass density ([1]; 318.15 K, w2 = 0.898): 1005.65 ± 0.54 kg/m3

Cn1cc[n+](C)c1.[Cl-] [1,3-dimethylimidazolium chloride]
Normal melting temperature (Crystal, visual observation): 126.00 ± 4 °C

CC#N [acetonitrile]
mass density (308.1 K, 101.33 kPa, Liquid, Vibrating tube method): 765.98 ± 4.2 kg/m3
